Data reported in ChEMBL document CHEMBL5247648, “Design, Synthesis, and Anti-Cancer Evaluation of Novel Cyclic Phosphate Prodrug of Gemcitabine” (J Med Chem, 2023).

Columns and labels:
[1] = test system: MIA PaCa-2; test: Antiproliferative activity against human MIA PaCa-2 cells assessed as inhibition of cell proliferation treated for 72 hrs by resazurin dye-based fluorescence assay; format: functional; conditions: MIA PaCa-2, 72 h
[2] = test system: BXPC-3; test: Antiproliferative activity against human BXPC-3 cells assessed as inhibition of cell proliferation treated for 72 hrs by resazurin dye-based fluorescence assay; format: functional; conditions: BXPC-3, 72 h
[3] = test system: JeKo-1; test: Antiproliferative activity against human JeKo-1 cells assessed as inhibition of cell proliferation treated for 72 hrs by resazurin dye-based fluorescence assay; format: functional; conditions: JeKo-1, 72 h
[4] = test system: CWR22R; test: Antiproliferative activity against human 22Rv1 cells assessed as inhibition of cell proliferation treated for 72 hrs by resazurin dye-based fluorescence assay; format: functional; conditions: 22Rv1, 72 h
[5] = test system: MM1.S; test: Antiproliferative activity against human MM1.S cells assessed as inhibition of cell proliferation treated for 72 hrs by resazurin dye-based fluorescence assay; format: functional
[6] = test system: Huh-7; test: Antiproliferative activity against human Huh-7 cells assessed as inhibition of cell proliferation treated for 72 hrs by resazurin dye-based fluorescence assay; format: functional; conditions: Huh-7, 72 h
[7] = test system: MV4-11; test: Antiproliferative activity against human MV4-11 cells assessed as inhibition of cell proliferation treated for 72 hrs by resazurin dye-based fluorescence assay; format: functional; conditions: MV4-11, 72 h
[8] = test system: CWR22R; test: In vivo antitumor activity against human 22Rv1 cells xenografted in castrated male nude Balb/c mouse assessed as tumor growth inhibition at 50 mg/kg, ip administered twice a week measured after 28 days relative to control; format: functional; conditions: 22Rv1, 672 h, time 28 day, read-out: TGI
[9] = Toxicity in castrated male nude Balb/c mouse xenografted with human 22Rv1 cells assessed as animal weight loss at 50 mg/kg, ip administered twice a week measured after 28 days; format: organism-based, CWR22R; conditions: in vivo, 672 h, time 28 day
[10] = test system: CWR22R; test: In vivo antitumor activity against human 22Rv1 cells xenografted in castrated male nude Balb/c mouse assessed as relative increment ratio at 50 mg/kg, ip administered twice a week measured after 28 days relative to control; format: functional; conditions: time 28 day
[11] = test system: BXPC-3; test: Induction of apoptosis in human BXPC-3 cells assessed as necrotic cells at 100 nM incubated for 24 hrs by […] (reference value: 3.57 %); format: functional
[12] = Toxicity in castrated male nude Balb/c mouse xenografted with human 22Rv1 cells assessed as tolerance at 50 mg/kg, ip administered twice a week measured after 28 days; format: organism-based, CWR22R; conditions: in vivo, 672 h, time 28 day
[13] = test system: BXPC-3; test: Induction of apoptosis in human BXPC-3 cells assessed as late cells at 100 nM incubated for 24 hrs by […] (reference value: 1.24 %); format: functional
[14] = test system: BXPC-3; test: Induction of apoptosis in human BXPC-3 cells assessed as early cells at 100 nM incubated for 24 hrs by […] (reference value: 1.68 %); format: functional
[15] = Toxicity in castrated male nude Balb/c mouse xenografted with human 22Rv1 cells assessed as toxic signs at 50 mg/kg, ip administered twice a week measured after 28 days; format: organism-based, CWR22R; conditions: in vivo, 672 h, time 28 day
[16] = test system: BXPC-3; test: Induction of apoptosis in human BXPC-3 cells assessed as viable cells at 100 nM incubated for 24 hrs by […] (reference value: 93.51 %); format: functional; conditions: read-out: Activity
[17] = Clearance in Beagle dog at 1 mg/kg, iv measured for 0.083 to 24 hrs by LC-MS/MS analysis; format: ADME, organism-based, Canis lupus familiaris; conditions: in vivo, time 0.083-24 hrs
[18] = Cmax in Beagle dog at 1 mg/kg, iv measured for 0.083 to 24 hrs by LC-MS/MS analysis; format: ADME, organism-based, Canis lupus familiaris; set-up: time upper 24 hrs, time lower 0.083 hrs, dose 1 mg/kg, route iv; conditions: in vivo
[19] = Half life in Beagle dog at 1 mg/kg, iv measured for 0.083 to 24 hrs by LC-MS/MS analysis; format: ADME, organism-based, Canis lupus familiaris; conditions: in vivo, time 0.083-24 hrs
[20] = AUC (0 to infinity) in Beagle dog at 1 mg/kg, iv measured for 0.083 to 24 hrs by LC-MS/MS analysis; format: ADME, organism-based, Canis lupus familiaris; set-up: time upper 24 hrs, time lower 0.083 hrs, dose 1 mg/kg, route iv; conditions: in vivo

SMILES	IC50 [1] [nM]	IC50 [2] [nM]	IC50 [5] [nM]	IC50 [6] [nM]	IC50 [7] [nM]	IC50 [3] [nM]	IC50 [4] [nM]	further results
CC(C)OC(=O)COP1(=O)OC[C@H]2O[C@@H](n3ccc(N)nc3=O)C(F)(F)[C@@H]2O1 (stereo not given in full)	24.2	47.5	5.4	26.1	4.9	23.4	15	–
CC(C)OC(=O)[C@H](C)NP(=O)(OC[C@H]1O[C@@H](n2ccc(N)nc2=O)C(F)(F)[C@@H]1O)Oc1ccccc1 (stereo not given in full)	710	> 1000	500	–	–	–	–	–
C[C@H](NP(=O)(OC[C@H]1O[C@@H](n2ccc(N)nc2=O)C(F)(F)[C@@H]1O)Oc1ccccc1)C(=O)OCc1ccccc1 (stereo not given in full) [FOSGEMCITABINE PALABENAMIDE]	142	230	31.1	350	61	160	130	inhibition in vivo at 50 mg/kg [8]: 55.6%; Activity [9]: Non-Toxic; T/C [10]: 51.9%; Activity [11]: 7.48%; Activity [12]: Non-Toxic; Activity [13]: 2.3%; Activity [14]: 1.52%; Activity [15]: Non-Toxic; viability at 0.1 µM [16]: 88.7%
COC(=O)COP1(=O)OC[C@H]2O[C@@H](n3ccc(N)nc3=O)C(F)(F)[C@@H]2O1 (stereo not given in full)	13.6	31.1	2.7	23	5.8	23.2	21.5	–
CCC(=O)Nc1ccn([C@@H]2O[C@@H]3COP(=O)(OCC(=O)OCc4ccccc4)O[C@H]3C2(F)F)c(=O)n1 (stereo not given in full)	530	908	–	–	–	–	–	–
Nc1ccn([C@@H]2O[C@@H]3COP(=O)(OCCCC(=O)OCc4ccccc4)O[C@H]3C2(F)F)c(=O)n1 (stereo not given in full)	35.7	78.3	–	–	–	–	–	–
Nc1ccn([C@@H]2O[C@@H]3COP(=O)(OCCCCC(=O)OCc4ccccc4)O[C@H]3C2(F)F)c(=O)n1 (stereo not given in full)	50.9	213	–	–	–	–	–	–
CCOC(=O)COP1(=O)OC[C@H]2O[C@@H](n3ccc(N)nc3=O)C(F)(F)[C@@H]2O1 (stereo not given in full)	16.3	22.6	3.9	38.4	6.1	31.6	20.5	–

The next lines start with results.

IC50 [1] [nM]	IC50 [2] [nM]	IC50 [5] [nM]	IC50 [6] [nM]	IC50 [7] [nM]	SMILES	IC50 [3] [nM]	IC50 [4] [nM]	further results
29	68.4	–	–	–	Nc1ccn([C@@H]2O[C@@H]3COP(=O)(OCCC(=O)OCc4ccccc4)O[C@H]3C2(F)F)c(=O)n1 (stereo not given in full)	–	–	–
29.4	40.5	4.7	41.1	3.5	COC(=O)COP(=O)(N[C@@H](C)C(=O)OC(C)C)OC[C@H]1O[C@@H](n2ccc(N)nc2=O)C(F)(F)[C@@H]1O (stereo not given in full)	26.2	–	–
> 1000	> 1000	> 1000	–	–	CCCC(CCC)C(=O)Nc1ccn([C@@H]2O[C@H](COP(=O)(N[C@@H](C)C(=O)OC(C)C)OCC(=O)OC)[C@@H](O)C2(F)F)c(=O)n1 (stereo not given in full)	–	–	–
–	14.5	5	22	3.8	Nc1ccn([C@@H]2O[C@@H]3CO[P@](=O)(OCC(=O)OCc4ccccc4)O[C@H]3C2(F)F)c(=O)n1	–	10.6	–
> 1000	> 1000	> 1000	–	–	CCCC(CCC)C(=O)Nc1ccn([C@@H]2O[C@H](COP(=O)(N[C@@H](C)C(=O)OCc3ccccc3)Oc3ccccc3)[C@@H](O)C2(F)F)c(=O)n1 (stereo not given in full)	–	–	–
553	> 1000	110	–	–	COC(=O)[C@H](C)NP(=O)(OC[C@H]1O[C@@H](n2ccc(N)nc2=O)C(F)(F)[C@@H]1O)Oc1ccccc1 (stereo not given in full)	–	–	–
27	35.2	4.1	28.2	5.8	COC(=O)COP(=O)(N[C@@H](C)C(=O)OCc1ccccc1)OC[C@H]1O[C@@H](n2ccc(N)nc2=O)C(F)(F)[C@@H]1O (stereo not given in full)	22.6	–	–
–	64.5	17.3	69	10.3	Nc1ccn([C@@H]2O[C@H](COP(=O)(O)OCC(=O)OCc3ccccc3)[C@@H](O)C2(F)F)c(=O)n1	–	43.2	clearance [17]: 28.4 mL/min/kg; Cmax [18]: 2560 ng/mL; half-life [19]: 35.2 min; AUC(0-inf) [20]: 637 ng·h/mL
–	15	6	22	4.1	Nc1ccn([C@@H]2O[C@@H]3CO[P@@](=O)(OCC(=O)OCc4ccccc4)O[C@H]3C2(F)F)c(=O)n1	–	8.1	–
540	> 1000	130	–	–	C[C@H](NP(=O)(OC[C@H]1O[C@@H](n2ccc(N)nc2=O)C(F)(F)[C@@H]1O)Oc1ccccc1)C(=O)OC1CCCCC1 (stereo not given in full)	–	–	–
–	64.5	17.3	69	10.3	Nc1ccn([C@@H]2O[C@H](CO)[C@@H](OP(=O)(O)OCC(=O)OCc3ccccc3)C2(F)F)c(=O)n1	–	43.2	clearance [17]: 28.4 mL/min/kg; Cmax [18]: 2560 ng/mL; half-life [19]: 35.2 min; AUC(0-inf) [20]: 637 ng·h/mL
